These results are taken from ChEMBL document CHEMBL1122888, “22-Hydroxycholesterol derivatives as HMG CoA reductase suppressors and serum cholesterol lowering agents” (1985).

For assay [1], the target named is T1, 3-hydroxy-3-methylglutaryl-coenzyme A reductase (Homo sapiens) (UniProt P04035).
T1 sequence (whole entry): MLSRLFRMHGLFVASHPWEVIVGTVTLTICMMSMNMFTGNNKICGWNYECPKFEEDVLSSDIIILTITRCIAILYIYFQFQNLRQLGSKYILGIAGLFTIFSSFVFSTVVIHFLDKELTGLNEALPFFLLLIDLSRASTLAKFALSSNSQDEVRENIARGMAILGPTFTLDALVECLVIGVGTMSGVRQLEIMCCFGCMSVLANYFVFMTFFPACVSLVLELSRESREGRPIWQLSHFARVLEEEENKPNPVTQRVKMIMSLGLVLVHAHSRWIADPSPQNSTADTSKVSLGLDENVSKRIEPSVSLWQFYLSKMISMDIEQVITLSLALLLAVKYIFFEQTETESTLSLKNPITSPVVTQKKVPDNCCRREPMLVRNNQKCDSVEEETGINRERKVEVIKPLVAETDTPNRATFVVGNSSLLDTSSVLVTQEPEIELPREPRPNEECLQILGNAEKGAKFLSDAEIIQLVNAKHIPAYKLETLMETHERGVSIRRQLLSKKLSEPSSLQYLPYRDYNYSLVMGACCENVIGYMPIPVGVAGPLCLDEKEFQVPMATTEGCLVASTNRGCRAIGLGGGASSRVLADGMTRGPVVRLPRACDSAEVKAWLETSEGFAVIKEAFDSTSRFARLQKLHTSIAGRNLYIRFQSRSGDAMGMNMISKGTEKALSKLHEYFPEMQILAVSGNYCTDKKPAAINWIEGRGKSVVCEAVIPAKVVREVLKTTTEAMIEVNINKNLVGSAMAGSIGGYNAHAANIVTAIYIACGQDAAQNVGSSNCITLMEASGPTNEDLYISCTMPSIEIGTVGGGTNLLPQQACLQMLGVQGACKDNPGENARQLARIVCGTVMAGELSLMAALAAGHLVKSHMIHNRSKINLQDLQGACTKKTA
Kind of assay: Evaluated in human fibroblast tissue culture assays for suppression of HMG-CoA reductase at concentration of 1 ug/mL.

Assay [2] concerns Monkey. Kind of assay: Evaluated for serum lipoprotein HDL levels in the 14 day treated rhesus monkey at dose (10 mg/kg/day, ig) over a 2-week period. In kind it is functional, Cercopithecidae. Set-up: reference not given here.
Assay [3] concerns Monkey. Kind of assay: Evaluated for serum cholesterol VLDL levels in the 14 day treated monkey at dose (10 mg/kg/day, ig) over a 2-week period. In kind it is functional, Cercopithecidae.
Assay [4] deals with Monkey. In words: Evaluated for serum lipoprotein LDL levels in the 14 day treated monkey at dose (10 mg/kg/day, ig) over a 2-week period. The assay is classed as functional, Cercopithecidae. More on the design: reference not given here.
Assay [5] has as its target T1, 3-hydroxy-3-methylglutaryl-coenzyme A reductase (Homo sapiens). Kind of assay: Evaluated for serum cholesterol levels in the 14 day treated rhesus monkeys at dose (10 mg/kg/day, ig) over a 2-week period. The assay is classed as functional, organism-based. To be noted: Cercopithecidae; target entry is the homologue from another species.
Assay [6] is filed under the species Rattus norvegicus. In words: Minimum effective dose necessary to produce >=25% decrease of elevated liver HMG CoA reductage levels. In kind it is functional. The conditions noted are these: read-out: MED.
The test system of assay [7] is HMG-CoA reductase (Rattus norvegicus). Kind of assay: Evaluated for the percent suppression of elevated liver HMG-CoA reductase in Diazoesterol treated rats.
Assay [8] deals with T1, 3-hydroxy-3-methylglutaryl-coenzyme A reductase (Homo sapiens). Kind of assay: Evaluated for serum cholesterol levels in the 14 day treated primate (male rhesus monkeys) at dose (10 mg/kg/day, ig) over a 2-week period. The assay is classed as functional, organism-based. The conditions noted are these: Cercopithecidae; target entry is the homologue from another species.
The species named for assay [9] is Rattus norvegicus. In words: Minimum effective dose necessary to produce >=25% decrease of elevated liver HMG CoA reductage levels in diazasterol treated rats. The assay is classed as functional. To be noted: read-out: MED.

As for `C[C@H](C(O)CCC(C)(C)F)C1CCC2C3CC=C4CC(O)CCC4(C)C3CCC21C` (stereo partly drawn), the inhibition in [1] is greater than 95%. Besides, the Lipoprotein level is given as 61% with Monkey [2] and 25% in the assay with Monkey [4]. For the same compound, the cholesterol level in the assay with Monkey [3] amounted to 8 mg/dL; in assay [5] it was 150 mg/dL. The minimal effective dose in the assay filed under Rattus norvegicus [6] worked out at 0.5 mg/kg. Also, in assay [7], the Suppression turned out to be 26%.

For `C[C@H](C(O)CCC1CC1)C1CCC2C3CC=C4CC(O)CCC4(C)C3CCC21C` (stereo partly drawn), the inhibition in [1] is greater than 95%. For the same compound, the Lipoprotein level was found to be 68% with Monkey [2] and 23% in the assay on Monkey [4]. The cholesterol level in the assay on Monkey [3] is 4 mg/dL; in assay [5], 179 mg/dL. In addition, the minimal effective dose in the assay filed under Rattus norvegicus [6] worked out at 0.5 mg/kg. The same compound registered a Suppression in assay [7] of 30%.

Regarding `CC(C)CCC(O)[C@@H](C)[C@H]1CC[C@H]2[C@@H]3CC=C4C[C@@H](O)CC[C@]4(C)[C@H]3CC[C@]12C` (stereo partly drawn), the minimal effective dose in the assay filed under Rattus norvegicus [6] was greater than 30 mg/kg.

Regarding `C[C@H](C(O)CCC(C)(C)Cl)C1CCC2C3CC=C4CC(O)CCC4(C)C3CCC21C` (stereo partly drawn), the results for the Lipoprotein level in the assay on Monkey [2] and in the assay with Monkey [4] were 70% and 22%, respectively. Further, the cholesterol level was 4 mg/dL in the assay with Monkey [3] and 168 mg/dL in [5]. Also, in the assay filed under Rattus norvegicus [6], the minimal effective dose is 0.2 mg/kg. Further, the Suppression in assay [7] is 28%.

In the case of `C[C@H](C(O)CCC(C)(C)C)C1CCC2C3CC=C4CC(O)CCC4(C)C3CCC21C` (stereo partly drawn), the inhibition in assay [1] was 95%. Also, the figures for the Lipoprotein level with Monkey [2] and in the assay with Monkey [4] were 66% and 25%, respectively. The cholesterol level in the assay on Monkey [3] was found to be 6 mg/dL; in [8], 167 mg/dL. The minimal effective dose in the assay listed under Rattus norvegicus [9] came out at 0.5 mg/kg. In addition, in [7], the Suppression came out at 39%.
